{"source": "patent US20230037660A1", "about": "“METHODS OF TREATING VASCULAR LESIONS AND MALFORMATIONS” (priority 2019, published 2023)", "origin": "cited, not measured here", "tested_on": "diseased tissue / blood vessels", "conditions": "ICG alone, not conjugated"}
{"smiles": "CC1(C)C(/C=C/C=C/C=C/C=C2\\N(CCCCS(=O)(=O)O)c3ccc4ccccc4c3C2(C)C)=[N+](CCCCS(=O)(=O)[O-])c2ccc3ccccc3c21", "note": "[ICG, indocyanine green]", "values": [{"measurement": "Fluorescence behaviour of the dye alone after injection", "value": "transiently lights up blood vessels immediately after injection"}]}
